In the NIST ThermoML archive (doi:10.1016/j.jct.2016.02.009):
Where “and” joins values, the source holds several entries; their conditions need not be identical. Equal entries are not always repeated.

Assay: molar heat capacity at constant pressure
Details: 101.33 kPa, Small (less than 1 g) adiabatic calorimetry

CCCCCCCCCCn1cc[n+](C)c1.O=S(=O)([N-]S(=O)(=O)C(F)(F)F)C(F)(F)F
Details | molar heat capacity at constant pressure
142.54 K, Metastable crystal | 368.4 J/K/mol
144.48 K, Crystal 2 | 358.2 J/K/mol
144.48 K, Metastable crystal | 372.5 J/K/mol
146.41 K, Metastable crystal | 376.6 J/K/mol
146.45 K, Crystal 2 | 361.5 J/K/mol
148.35 K, Metastable crystal | 380.7 J/K/mol
148.41 K, Crystal 2 | 365 J/K/mol
150 K, Crystal 2 | 367.5 J/K/mol
150 K, Metastable crystal | 384.3 J/K/mol
150.28 K, Metastable crystal | 384.8 J/K/mol
150.38 K, Crystal 2 | 368.2 J/K/mol
152.21 K, Metastable crystal | 389.1 J/K/mol
152.35 K, Crystal 2 | 371.7 J/K/mol
154.14 K, Metastable crystal | 393.4 J/K/mol
154.32 K, Crystal 2 | 375 J/K/mol
155.25 K, Crystal 2 | 376.4 J/K/mol
156.07 K, Metastable crystal | 397.7 J/K/mol
157.33 K, Crystal 2 | 380.2 J/K/mol
157.99 K, Metastable crystal | 402.2 J/K/mol
159.29 K, Crystal 2 | 383.4 J/K/mol
159.91 K, Metastable crystal | 406.6 J/K/mol
160 K, Crystal 2 | 384.7 J/K/mol
160 K, Metastable crystal | 406.8 J/K/mol
161.26 K, Crystal 2 | 387 J/K/mol
161.83 K, Metastable crystal | 411 J/K/mol
163.22 K, Crystal 2 | 390.1 J/K/mol
163.75 K, Metastable crystal | 415.7 J/K/mol
165.19 K, Crystal 2 | 393.6 J/K/mol
165.66 K, Metastable crystal | 420.2 J/K/mol
167.15 K, Crystal 2 | 397.2 J/K/mol
167.56 K, Metastable crystal | 425 J/K/mol
169.11 K, Crystal 2 | 400.7 J/K/mol
169.47 K, Metastable crystal | 429.9 J/K/mol
170 K, Crystal 2 | 402.3 J/K/mol
170 K, Metastable crystal | 431.2 J/K/mol
171.07 K, Crystal 2 | 404.1 J/K/mol
171.37 K, Metastable crystal | 434.6 J/K/mol
173.03 K, Crystal 2 | 407.6 J/K/mol
173.27 K, Metastable crystal | 440 J/K/mol
174.98 K, Crystal 2 | 411.2 J/K/mol
175.16 K, Metastable crystal | 445.5 J/K/mol
176.93 K, Crystal 2 | 414.8 J/K/mol
177.04 K, Metastable crystal | 451.4 J/K/mol
178.88 K, Crystal 2 | 418.4 J/K/mol
178.92 K, Metastable crystal | 458.1 J/K/mol
180 K, Crystal 2 | 420.7 J/K/mol
180 K, Metastable crystal | 462.6 J/K/mol
180.78 K, Metastable crystal | 466 J/K/mol
180.83 K, Crystal 2 | 422.1 J/K/mol
182.64 K, Metastable crystal | 476.8 J/K/mol
182.78 K, Crystal 2 | 426 J/K/mol
184.47 K, Metastable crystal | 489.9 J/K/mol
184.72 K, Crystal 2 | 430 J/K/mol
186.29 K, Metastable crystal | 501.9 J/K/mol
186.66 K, Crystal 2 | 434 J/K/mol
188.1 K, Metastable crystal | 507.1 J/K/mol
188.59 K, Crystal 2 | 438.2 J/K/mol
189.9 K, Metastable crystal | 510.3 J/K/mol
190 K, Crystal 2 | 440.9 J/K/mol
190 K, Metastable crystal | 510.3 J/K/mol
190.52 K, Crystal 2 | 442.2 J/K/mol
191.71 K, Metastable crystal | 511.1 J/K/mol
192.45 K, Crystal 2 | 446.2 J/K/mol
193.51 K, Metastable crystal | 514.8 J/K/mol
194.38 K, Crystal 2 | 450.4 J/K/mol
195.31 K, Metastable crystal | 521.6 J/K/mol
196.3 K, Crystal 2 | 455.3 J/K/mol
197.11 K, Metastable crystal | 529.9 J/K/mol
198.22 K, Crystal 2 | 460.2 J/K/mol
198.89 K, Metastable crystal | 539.6 J/K/mol
200 K, Crystal 2 | 463.2 J/K/mol
200 K, Metastable crystal | 546.2 J/K/mol
200.13 K, Crystal 2 | 465.1 J/K/mol
200.65 K, Metastable crystal | 550 J/K/mol
202.1 K, Crystal 2 | 470.5 J/K/mol
202.46 K, Metastable crystal | 568.9 J/K/mol
204.12 K, Crystal 2 | 476.2 J/K/mol
204.28 K, Metastable crystal | 599.4 J/K/mol
206.02 K, Metastable crystal | 683.4 J/K/mol
206.13 K, Crystal 2 | 482 J/K/mol
207.65 K, Metastable crystal | 752.9 J/K/mol
208.14 K, Crystal 2 | 487.2 J/K/mol
209.38 K, Metastable crystal | 552.2 J/K/mol
210 K, Crystal 2 | 489.1 J/K/mol
210 K, Metastable crystal | 513 J/K/mol
210.15 K, Crystal 2 | 491.5 J/K/mol
211.31 K, Metastable crystal | 512.9 J/K/mol
212.15 K, Crystal 2 | 495.6 J/K/mol
213.27 K, Metastable crystal | 512 J/K/mol
214.15 K, Crystal 2 | 500.9 J/K/mol
215.24 K, Metastable crystal | 515.4 J/K/mol
216.13 K, Crystal 2 | 507 J/K/mol
217.2 K, Metastable crystal | 523.2 J/K/mol
218.12 K, Crystal 2 | 513.6 J/K/mol
219.17 K, Metastable crystal | 551.8 J/K/mol
220 K, Crystal 2 | 519.8 J/K/mol
220.09 K, Crystal 2 | 520.6 J/K/mol
221.12 K, Metastable crystal | 812.2 J/K/mol
222.05 K, Crystal 2 | 528.2 J/K/mol
224 K, Crystal 2 | 536.2 J/K/mol
225.95 K, Crystal 2 | 545.3 J/K/mol
227.87 K, Crystal 2 | 555.4 J/K/mol
229.79 K, Crystal 2 | 567 J/K/mol
230 K, Crystal 2 | 569.2 J/K/mol
231.68 K, Crystal 2 | 580.6 J/K/mol
233.56 K, Crystal 2 | 594.7 J/K/mol
235.42 K, Crystal 2 | 610.3 J/K/mol
237.26 K, Crystal 2 | 624.9 J/K/mol
239.07 K, Crystal 2 | 641 J/K/mol
240 K, Crystal 2 | 651.3 J/K/mol
240.86 K, Crystal 2 | 665.1 J/K/mol
242.62 K, Crystal 2 | 694.9 J/K/mol
244.33 K, Crystal 2 | 733.6 J/K/mol
245.99 K, Crystal 2 | 789 J/K/mol
247.56 K, Crystal 2 | 885.2 J/K/mol
249 K, Crystal 1 | 1053 J/K/mol
249 K, Crystal 2 | 1053 J/K/mol
249.01 K, Crystal 1 | 1053 J/K/mol
250.61 K, Crystal 1 | 627.9 J/K/mol
252 K, Crystal 1 | 619.2 J/K/mol
252.45 K, Crystal 1 | 620.8 J/K/mol
254.29 K, Crystal 1 | 629.9 J/K/mol
256.12 K, Crystal 1 | 642.5 J/K/mol
257.94 K, Crystal 1 | 658.6 J/K/mol
259.72 K, Crystal 1 | 680.3 J/K/mol
260 K, Crystal 1 | 648.7 J/K/mol
261.48 K, Crystal 1 | 710 J/K/mol
263.19 K, Crystal 1 | 751.8 J/K/mol
263.96 K, Liquid | 730.6 J/K/mol
264.85 K, Crystal 1 | 795.1 J/K/mol
265.87 K, Liquid | 731.7 J/K/mol
266.46 K, Crystal 1 | 822.8 J/K/mol
267.69 K, Liquid | 733 J/K/mol
268.04 K, Crystal 1 | 872.1 J/K/mol
269.51 K, Liquid | 734.3 J/K/mol
269.56 K, Crystal 1 | 972.8 J/K/mol
270 K, Crystal 1 | 687.6 J/K/mol
271.33 K, Liquid | 735.9 J/K/mol
273.16 K, Liquid | 736.9 J/K/mol
274.98 K, Liquid | 738.2 J/K/mol
276.81 K, Liquid | 739.4 J/K/mol
277.33 K, Crystal 1 | 717.5 J/K/mol
277.33 K, Liquid | 739.7 J/K/mol
278.63 K, Liquid | 740.6 J/K/mol
278.84 K, Liquid | 741.1 J/K/mol
280 K, Liquid | 741.6 J/K/mol
280.45 K, Liquid | 741.8 J/K/mol
280.56 K, Liquid | 742.3 J/K/mol
282.28 K, Liquid | 743.2 J/K/mol and 742.8 J/K/mol
284 K, Liquid | 744.4 J/K/mol
284.1 K, Liquid | 744.5 J/K/mol
285.72 K, Liquid | 745.6 J/K/mol
285.92 K, Liquid | 745.7 J/K/mol
287.44 K, Liquid | 747.1 J/K/mol
287.75 K, Liquid | 746.9 J/K/mol
289.16 K, Liquid | 747.9 J/K/mol
289.57 K, Liquid | 748.4 J/K/mol
290 K, Liquid | 748.8 J/K/mol
290.88 K, Liquid | 749.4 J/K/mol
291.4 K, Liquid | 749.8 J/K/mol
292.6 K, Liquid | 750.6 J/K/mol
293.22 K, Liquid | 750.8 J/K/mol
294.32 K, Liquid | 751.9 J/K/mol
295.05 K, Liquid | 752.4 J/K/mol
296.04 K, Liquid | 753.2 J/K/mol
296.87 K, Liquid | 753.9 J/K/mol
297.77 K, Liquid | 754.3 J/K/mol
298.15 K, Liquid | 754.8 J/K/mol
298.69 K, Liquid | 755.1 J/K/mol
299.49 K, Liquid | 755.7 J/K/mol
300 K, Liquid | 756.2 J/K/mol
301.26 K, Liquid | 757.2 J/K/mol
303.08 K, Liquid | 758.7 J/K/mol
304.91 K, Liquid | 759.9 J/K/mol
306.73 K, Liquid | 761.3 J/K/mol
308.56 K, Liquid | 762.8 J/K/mol
310 K, Liquid | 763.8 J/K/mol
310.38 K, Liquid | 764.3 J/K/mol
312.21 K, Liquid | 765.5 J/K/mol
314.03 K, Liquid | 766.8 J/K/mol
315.86 K, Liquid | 768.4 J/K/mol
317.69 K, Liquid | 769.8 J/K/mol
319.51 K, Liquid | 771.1 J/K/mol
320 K, Liquid | 771.5 J/K/mol
321.34 K, Liquid | 772.8 J/K/mol
323.17 K, Liquid | 774.3 J/K/mol
324.99 K, Liquid | 775.7 J/K/mol
326.82 K, Liquid | 777.2 J/K/mol
328.64 K, Liquid | 778.5 J/K/mol
330 K, Liquid | 779.5 J/K/mol
330.47 K, Liquid | 779.9 J/K/mol
332.29 K, Liquid | 781.6 J/K/mol
334.12 K, Liquid | 783.1 J/K/mol
335.95 K, Liquid | 784.6 J/K/mol
337.77 K, Liquid | 786 J/K/mol
339.6 K, Liquid | 787.5 J/K/mol
340 K, Liquid | 787.7 J/K/mol
341.42 K, Liquid | 788.9 J/K/mol
343.25 K, Liquid | 789.9 J/K/mol
345.08 K, Liquid | 791.3 J/K/mol
346.91 K, Liquid | 793.1 J/K/mol
348.74 K, Liquid | 794.8 J/K/mol
350 K, Liquid | 796 J/K/mol
350.57 K, Liquid | 796.5 J/K/mol
352.4 K, Liquid | 797.8 J/K/mol
354.23 K, Liquid | 799.5 J/K/mol
356.06 K, Liquid | 801.2 J/K/mol
357.89 K, Liquid | 802.8 J/K/mol
359.72 K, Liquid | 804.3 J/K/mol
360 K, Liquid | 804.6 J/K/mol
361.55 K, Liquid | 806 J/K/mol
363.37 K, Liquid | 807.7 J/K/mol
365.2 K, Liquid | 809.1 J/K/mol
367.03 K, Liquid | 810.8 J/K/mol
368.86 K, Liquid | 812.7 J/K/mol
370 K, Liquid | 813.4 J/K/mol
